# Reference: publication PMC10708259 (Molecules, 2023)
# Structures can show the parent of a compound that is named as a salt.
# Columns and labels:
# [1] = target: T1, human μ-opioid receptor (OPRM1) (Homo sapiens, UniProt P35372); assay: cell-based; assay type: cell-based; conditions: for EC50: MOR Agonist EC50 ± SEM; for Emax: read-out: MOR Agonist %Emax ± SEM
# T1 construct: host or cells: cAMP Hunter CHO-K1
# [2] = target: T2, human δ-opioid receptor (OPRD1) (Homo sapiens, UniProt P41143); assay: Forskolin-induced cAMP accumulation assay, DOR agonist mode; conditions: for Emax: CHO-K1, read-out: DOR Agonist %Emax ± SEM
# T2 sequence (P41143 whole entry): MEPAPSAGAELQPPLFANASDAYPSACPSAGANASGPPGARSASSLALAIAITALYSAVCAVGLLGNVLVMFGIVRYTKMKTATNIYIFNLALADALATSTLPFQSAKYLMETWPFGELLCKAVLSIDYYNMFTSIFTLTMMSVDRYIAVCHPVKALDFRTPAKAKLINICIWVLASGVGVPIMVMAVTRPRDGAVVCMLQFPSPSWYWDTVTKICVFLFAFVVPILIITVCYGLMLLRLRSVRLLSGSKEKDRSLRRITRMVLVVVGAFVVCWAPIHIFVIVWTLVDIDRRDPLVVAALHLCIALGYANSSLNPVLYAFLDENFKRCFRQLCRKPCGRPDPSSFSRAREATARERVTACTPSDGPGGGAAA
# [3] = target: T3, human κ-opioid receptor (OPRK1) (Homo sapiens, UniProt P41145); assay: Forskolin-induced cAMP accumulation assay, KOR agonist mode; conditions: for Emax: CHO-K1, read-out: KOR Agonist %Emax ± SEM
# T3 sequence (P41145 whole entry): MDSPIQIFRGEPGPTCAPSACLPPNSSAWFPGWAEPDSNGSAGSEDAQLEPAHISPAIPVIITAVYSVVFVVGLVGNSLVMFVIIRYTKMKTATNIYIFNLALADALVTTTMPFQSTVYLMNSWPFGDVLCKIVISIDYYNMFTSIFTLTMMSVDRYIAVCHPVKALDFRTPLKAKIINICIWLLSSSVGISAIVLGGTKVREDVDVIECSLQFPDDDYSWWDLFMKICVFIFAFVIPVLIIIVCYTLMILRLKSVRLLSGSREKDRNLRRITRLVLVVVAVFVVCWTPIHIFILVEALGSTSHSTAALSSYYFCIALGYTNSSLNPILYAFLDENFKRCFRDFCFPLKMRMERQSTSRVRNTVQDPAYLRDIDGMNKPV
# [4] = target: T3, human κ-opioid receptor (OPRK1); assay: Forskolin-induced cAMP accumulation assay, KOR antagonist mode; conditions: for KOR Antagonist %Imax ± SEM: versus EC90 of U50488H, Imax normalized to nor-BNI
# [5] = target: T2, human δ-opioid receptor (OPRD1); assay: Forskolin-induced cAMP accumulation assay, DOR antagonist mode
# T1 sequence (P35372 whole entry): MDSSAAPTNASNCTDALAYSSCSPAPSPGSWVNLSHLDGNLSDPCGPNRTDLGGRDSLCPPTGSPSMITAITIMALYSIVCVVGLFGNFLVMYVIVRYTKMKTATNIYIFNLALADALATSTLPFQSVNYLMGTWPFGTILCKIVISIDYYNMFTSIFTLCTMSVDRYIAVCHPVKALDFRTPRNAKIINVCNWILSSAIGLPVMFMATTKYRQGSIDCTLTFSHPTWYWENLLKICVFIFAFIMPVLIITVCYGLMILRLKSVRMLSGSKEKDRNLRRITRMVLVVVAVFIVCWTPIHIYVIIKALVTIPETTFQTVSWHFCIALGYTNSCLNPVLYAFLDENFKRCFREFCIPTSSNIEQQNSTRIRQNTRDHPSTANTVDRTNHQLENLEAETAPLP
smiles,measurement,setting,value
"CC1C2Cc3ccc(O)cc3C1(C)CCN2CCc1ccc([N+](=O)[O-])cc1 (as salt: HCl) [Compound 3, (1R,5R,9R)-6,11-Dimethyl-3-(4-nitrophenethyl)-1,2,3,4,5,6-hexahydro-2,6-methanobenzo[d]azocin-8-ol]",melting point,,273 to 274 °C (dec.)
"CC1C2Cc3ccc(O)cc3C1(C)CCN2CCc1cccc(Br)c1 [Compound 13, (1R,5R,9R)-6,11-Dimethyl-3-(3-bromophenethyl)-1,2,3,4,5,6-hexahydro-2,6-methanobenzo[d]azocin-8-ol]",EC50,[1],18 nM
same,Emax,[1],78%
same,EC50,[2],110 ± 24 nM
same,Emax,[2],51%
same,EC50,[3],> 10000 nM
same,IC50,[4],90 ± 37 nM
same,KOR Antagonist %Imax ± SEM,[4],99 ± 2%
"CC1C2Cc3ccc(O)cc3C1(C)CCN2CCc1cccc(Cl)c1 [Compound 16, (1R,5R,9R)-6,11-Dimethyl-3-(3-chlorophenethyl)-1,2,3,4,5,6-hexahydro-2,6-methanobenzo[d]azocin-8-ol]",EC50,[1],13 nM
same,Emax,[1],95%
same,EC50,[2],93 ± 25 nM
same,Emax,[2],64%
same,EC50,[3],> 10000 nM
same,IC50,[4],111 ± 43 nM
same,KOR Antagonist %Imax ± SEM,[4],108 ± 10%
"CC1C2Cc3ccc(O)cc3C1(C)CCN2CCc1c(Cl)cccc1Cl [Compound 22, (1R,5R,9R)-6,11-Dimethyl-3-(2,6-dichlorophenethyl)-1,2,3,4,5,6-hexahydro-2,6-methanobenzo[d]azocin-8-ol]",EC50,[1],4 nM
same,Emax,[1],99%
same,EC50,[2],59 ± 25 nM
same,Emax,[2],78%
same,EC50,[3],> 10000 nM
same,IC50,[4],65 ± 24 nM
same,KOR Antagonist %Imax ± SEM,[4],87 ± 7%
"CC1C2Cc3ccc(O)cc3C1(C)CCN2CCc1ccccc1 [Compound 23, (1R,5R,9R)-6,11-Dimethyl-3-(phenethyl)-1,2,3,4,5,6-hexahydro-2,6-methanobenzo[d]azocin-8-ol]",EC50,[1],0.27 nM
same,Emax,[1],101%
same,EC50,[2],4 ± 1 nM
same,Emax,[2],85%
same,EC50,[3],3.4 ± 0.4 nM
same,Emax,[3],25%
same,IC50,[4],281 ± 94 nM
same,KOR Antagonist %Imax ± SEM,[4],81 ± 5%
"C[C@H]1[C@H]2Cc3ccc(O)cc3[C@]1(C)CCN2CCc1c[nH]c2ccccc12 [Compound 26, (1R,5R,9R)-3-(2-(1H-Indol-3-yl)ethyl)-6,11-dimethyl-1,2,3,4,5,6-hexahydro-2,6-methanobenzo[d]azocin-8-ol]",EC50,[1],12 nM
same,Emax,[1],102%
same,EC50,[2],343 ± 35 nM
same,Emax,[2],91%
same,EC50,[3],> 10000 nM
same,IC50,[4],> 10000 nM
"C[C@H]1[C@H]2Cc3ccc(O)cc3[C@]1(C)CCN2CCC1CCN(C)CC1 [Compound 28, (1R,5R,9R)-6,11-Dimethyl-3-(2-(1-methylpiperidin-4-yl)ethyl)-1,2,3,4,5,6-hexahydro-2,6-methanobenzo[d]azocin-8-ol]",MOR agonist potency / efficacy in words,[1],little or no potency
same,EC50,[1],> 10000 nM
same,EC50,[2],> 10000 nM
same,EC50,[3],0.05 ± 0.02 nM
same,Emax,[3],15%
same,IC50,[5],> 10000 nM
same,IC50,[4],> 10000 nM
